US9688709B2, “Phosphaplatins and their use for treatment of cancers” (OHIO UNIVERSITY, priority 2010, dated 2017)

What was measured:
[1] = tested on: A2780, epithelial human ovarian cancer; assay: Clonogenic assay, A2780 cells; format: cell-based
Protocol: (§1) To determine the relative activities of the phosphaplatins of formulas (I)-(VI), each stereoisomer was tested through in vitro clonogenic assays using human ovarian cancer cells, human colon cancer cells, and human head-and-neck cancer cells. […] Cells were cultured on monolayer using RPMI 1640 supplemented with 10% fetal bovine serum, 2 mM glutamine, 0.25 units/mL insulin and penicillin/streptomycin (100 units/mL) in a 37° C. incubator continuously gassed with 5% CO2. Cells were subcultured using 0.0625% trypsin in HBSS to maintain cells in exponential cell growth.
Half-maximal inhibitory concentration (IC50) values were determined using a clonogenic assay or a CyQUANT® cell proliferation assay. In the clonogenic assay, for example, 500-700 A2780 cells from a single cell suspension were plated onto 60 mm petri plates 24 hours before treatment with the platinum compounds to permit cell attachment. On the day of treatment with the platinum compounds described in the above Synthesis Examples, the medium was decanted and was replaced with the appropriate concentration of phosphaplatin compounds (from 50 nM to 75 μM) at three different time points, […] Triplicate plates were set up for each platinum compound concentration. […] These plates were returned to the 37° C. incubator for 7 days for colony formation.
(§2) In TABLES 1-5, except where actual error values are given, each reported value is assumed to have an error not greater than ±15% of the reported value; and unless otherwise specified, the data were obtained from clonogenic assays.
(§3) In further tests, cells were treated with the platinum compounds continuously for 7 days. Colonies were fixed and stained using 2% crystal violet in 4% formaldehyde. Colonies containing more than 50 cells were scored. The number of scored colonies from the triplicate plates was averaged, and this number was divided by the number of cells plated to obtain a value for the fraction of cells forming colonies. These values for fraction of cells forming colonies then were corrected for plating efficiency by dividing the fraction by the number of cells forming colonies in plates that were not treated with platinum compounds. […] Similar data for OVCAR-10 are shown in FIG. 3, comparing (1R,2R)-pyrodach-2 (RD2), (1R,2R)-pyrodach-4 (RD4), trans-(±)-pyrodach-2 (T-D2), and trans-(±)-pyrodach-4 (T-D4).

[2] = tested on: A2780/C30, epithelial human ovarian cancer resistant to 30 μM cisplatin and 100 μM carboplatin; assay: Clonogenic assay, A2780/C30 cells; format: cell-based; conditions: A2780/C30, 1 hour treatment
Protocol: as §1
Half-maximal inhibitory concentration (IC50) values were determined using a clonogenic assay or a CyQUANT® cell proliferation assay. In the clonogenic assay, for example, 500-700 A2780 cells from a single cell suspension were plated onto 60 mm petri plates 24 hours before treatment with the platinum compounds to permit cell attachment. On the day of treatment with the platinum compounds described in the above Synthesis Examples, the medium was decanted and was replaced with the appropriate concentration of phosphaplatin compounds (from 50 nM to 75 μM) at three different time points, […] Triplicate plates were set up for each platinum compound concentration. After the 24-hour treatment, the medium containing the platinum compounds was decanted and was replaced with fresh medium. These plates were returned to the 37° C. incubator for 7 days for colony formation.
as §2, §3

[3] = tested on: OVCAR-10, human ovarian cancer resistant to cisplatin treatment; assay: Clonogenic assay, OVCAR-10 cells; format: cell-based; conditions: OVCAR-10, 24 hours treatment
Protocol: as §1
Half-maximal inhibitory concentration (IC50) values were determined using a clonogenic assay or a CyQUANT® cell proliferation assay. In the clonogenic assay, for example, 500-700 A2780 cells from a single cell suspension were plated onto 60 mm petri plates 24 hours before treatment with the platinum compounds to permit cell attachment. On the day of treatment with the platinum compounds described in the above Synthesis Examples, the medium was decanted and was replaced with the appropriate concentration of phosphaplatin compounds (from 50 nM to 75 μM) at three different time points, and the treated cells were placed back into the 37° C. incubator for 24 hours. Triplicate plates were set up for each platinum compound concentration. After the 24-hour treatment, the medium containing the platinum compounds was decanted and was replaced with fresh medium. These plates were returned to the 37° C. incubator for 7 days for colony formation.
as §2, §3

[4] = tested on: human colon cancer cell lines (HT-29); assay: CyQUANT cell proliferation assay, HT-29; format: cell-based; conditions: HT-29, 72 hours
From the text: (§4) In these experiments, desired number of cells were exposed to phosphaplatins of different concentrations for 72 hr. before measuring the DNA content. Because the DNA content is proportional to the number of surviving cells, the assay provides a quantitative measure of proliferating cells. The technique is described in detail in Jones et al., “Sensitive determination of cell number using the CyQUANT cell proliferation assay,” J. Immunol. Methods, vol. 254, pp. 85-98 (2001).
as §2

[5] = tested on: A549, human lung adenocarcinoma cancer cells; assay: CyQUANT cell proliferation assay, A549; format: cell-based; conditions: A549, 72-hour treatment
From the text: as §4, §2

[6] = tested on: U251, human glioblastoma cancer cells; assay: CyQUANT cell proliferation assay, U251; format: cell-based; conditions: U251, 72-hour treatment
From the text: as §4, §2

[7] = tested on: PC-3, human metastatic prostate cancer cells; assay: CyQUANT cell proliferation assay, PC-3; format: cell-based; conditions: PC-3, 72-hour treatment
From the text: as §4, §2

[8] = tested on: SKMEL-2, human skin melanoma cancer cells; assay: CyQUANT cell proliferation assay, SKMEL-2; format: cell-based; conditions: SKMEL-2, 72-hour treatment
From the text: as §4, §2

[9] = tested on: MCF-7, human breast cancer cells; assay: CyQUANT cell proliferation assay, MCF-7; format: cell-based; conditions: MCF-7, 72-hour treatment
From the text: as §4, §2

[10] = tested on: OVCAR-8, human ovarian cancer cells with dysfunctional p53; assay: CyQUANT cell proliferation assay, OVCAR-8; format: cell-based; conditions: OVCAR-8, 72-hour treatment
From the text: as §4, §2

[11] = tested on: OVCAR-10, human ovarian cancer resistant to cisplatin treatment; assay: CyQUANT cell proliferation assay, OVCAR-10; format: cell-based; conditions: OVCAR-10, 72-hour treatment
From the text: as §4, §2

Ovarian tumor = Ovarian tumor inflicted SCID mice, tumor growth and log cell kill; format: in vivo; conditions: 7 mg/kg
Protocol: Ovarian tumor inflicted SCID mice were treated with trans-(±)-pyrodach-2 and trans-(±)-pyrodach-4 at various doses up to 40 mg/kg, and tumor growth was monitored up to six weeks or until the tumor size became so large that these animals were sacrificed. The tumor growth or regression by the phosphaplatin-treated mice was then compared with cisplatin-treated mice (7 mg/kg) and carboplatin-treated mice (60 mg/kg). Three doses of platinum compounds were administered on alternate days when the tumor grew to a size of at least 100 mm^3 size. Gross and net log cell kill values were then calculated using the formulas:
[formula] [formula] where T and C are median times in days to grow tumor to a specified size, and Td is the median time in days to double the size of the tumor in control animals.

## N.N.[Cl][Pt][Cl] [cisplatin]
[1]; A2780, 1 hour treatment
  IC50: 7 µM
[1]; A2780, 24 hours treatment
  IC50: 5 µM
[2]
  IC50: 100 µM
[3]
  IC50: 4.1 µM
[4]
  IC50: 6.5 µM
[5]
  IC50: 2.8 µM
[6]
  IC50: 0.75 µM
[7]
  IC50: 1.08 µM
[8]
  IC50: 5.34 µM
[9]
  IC50: 5.1 µM
[10]
  IC50: 6.3 µM
[11]
  IC50: 3.1 µM
Ovarian tumor
  time to death of treated mice: ≤ 7 days
  tumor response: tumor regression
